Where a name gives a salt, the structure may show the parent alone.
SMILES | melting point
CCN(CC)CCOc1ccc(NC(=O)C#Cc2ccc(-c3ccc(Cl)cc3)cc2)cc1Cl.Cl | 226 to 233 °C
CCN(CC)CCOc1ccc(NC(=O)C#Cc2ccc(-c3ccccc3)cc2Cl)cc1Cl (as salt: hydrochloride) [Example 3.32, 3-(3-chlorobiphenyl-4-yl)propynoic acid-[3-chloro-4-(2-diethylaminoethoxy)phenyl]amide hydrochloride] | 195 to 200 °C
O=C(C#Cc1ccc(-c2ccccc2)cc1Cl)Nc1ccc(CN2CCCCC2)cc1 (as salt: hydrochloride) [Example 3.33, 3-(3-chlorobiphenyl-4-yl)propynoic acid-(4-piperidin-1-ylmethylphenyl)amide hydrochloride] | 260 to 265 °C
CCN(CC)CCc1ccc(NC(=O)C#Cc2ccc(Cl)cc2Cl)cc1 (as salt: hydrochloride) [Example 3.34, 3-(2,4-dichlorophenyl)propynoic acid-[4-(2-diethylaminoethyl)phenyl]amide hydrochloride] | 204 to 208 °C
O=C(C#Cc1ccc(C(F)(F)F)cc1Cl)Nc1ccc(CN2CCCCC2)cc1 (as salt: hydrochloride) [Example 3.41, 3-(2-chloro-4-trifluoromethylphenyl)propynoic acid(4-piperidin-1-ylmethylphenyl)amide hydrochloride] | 193 to 195 °C
CC1CCN(CCOc2ccc(NC(=O)C#Cc3ccc(C(F)(F)F)cc3Cl)cc2)CC1 (as salt: hydrochloride) [Example 3.45, 3-(2-chloro-4-trifluoromethylphenyl)propynoic acid {4-[2-(4-methylpiperidin-1-yl)ethoxy]phenyl}amide hydrochloride] | 240 to 245 °C
CN(C(=O)C#Cc1ccc(CN2CCC(N3CCCC3)CC2)cc1)c1ccc(-c2ccc(Cl)cc2)cc1 (as salt: trifluoroacetate) [Example 1.24, 3-[4-(4-pyrrolidin-1-ylpiperidin-1-ylmethyl)phenyl]propynoic acid-(4′-chlorobiphenyl-4-yl)methylamideditrifluoroacetate] | 161 to 164 °C
NC1(c2ccc(C#CC(=O)Nc3ccc(-c4ccc(Cl)cc4)cc3)cc2)CC1 (as salt: trifluoroacetate) [Example 1.422, 3-[4-(1-aminocyclopropyl)phenyl]propynoic acid-(4′-chlorobiphenyl-4-yl)amide trifluoroacetate] | 160 to 164 °C
CNC1(c2ccc(C#CC(=O)Nc3ccc(-c4ccc(Cl)cc4)cc3)cc2)CC1 (as salt: trifluoroacetate) [Example 1.423, 3-[4-(1-methylaminocyclopropyl)phenyl]propynoic acid-(4′-chlorobiphenyl-4-yl)amide trifluoroacetate] | 217.3 °C
CC#Cc1ccc(NC(=O)C#Cc2ccc(CN3CCCCC3)cc2)cc1 [Example 1.2, 3-(4-piperidin-1-ylemthylphenyl)propynoic acid-(4-prop-1-ynylphenyl)amide] | 180 to 181 °C
COc1ccc(-c2ccc(NC(=O)C#Cc3ccc(CN4CCCCC4)cc3)cc2)cc1 [Example 1.8, 3-(4-piperidin-1-ylmethylphenyl)propynoic acid-(4′-methoxybiphenyl-4-yl)amide] | 170 °C
COc1ccc(-c2ccc(NC(=O)C#Cc3ccc(CN4CCC(Nc5ccccn5)CC4)cc3)cc2)cc1 [Example 1.11, 3-{4-[4-(pyridin-2-ylamino)piperidin-1-ylmethyl]phenyl}propynoic acid-(4′-methoxybiphenyl-4-yl)amide] | 196 to 197 °C
O=C(C#Cc1ccc(CN2CCCC2)cc1)Nc1ccc(-c2ccc(Cl)cc2)cc1F [Example 1.17, 3-(4-pyrrolidin-1-ylmethylphenyl)propynoic acid-(4′-chloro-3-fluorobiphenyl-4-yl)amide] | 136 °C
O=C(C#Cc1ccc(CN2CCC[C@@H]2CO)cc1)Nc1ccc(-c2ccc(Cl)cc2)cc1F [Example 1.20, 3-[4-((R)-2-hydroxymethylpyrrolidin-1-ylmethyl)phenyl]propynoic acid-(4′-chloro-3-fluorobiphenyl-4-yl)amide] | 146 to 148 °C
O=C(C#Cc1ccc(CN2CCC(O)CC2)cc1)Nc1ccc(-c2ccc(Cl)cc2)cc1F [Example 1.21, 3-[4-(4-hydroxypiperidin-1-ylmethyl)phenyl]propynoic acid-(4′-chloro-3-fluorobiphenyl-4-yl)amide] | 164 to 165 °C
CC(C)(O)C1CCN(Cc2ccc(C#CC(=O)Nc3ccc(-c4ccc(Cl)cc4)cc3)cc2)CC1 [Example 1.34, 3-{4-[4-(1-hydroxy-1-methylethyl)piperidin-1-ylmethyl]phenyl}propynoic acid-(4′-chlorobiphenyl-4-yl)amide] | 194 to 195 °C
COC1CCN(Cc2ccc(C#CC(=O)Nc3ccc(-c4ccc(Cl)cc4)cc3)cc2)CC1 [Example 1.36, 3-[4-(4-methoxypiperidin-1-ylmethyl)phenyl]propynoic acid-(4′-chlorobiphenyl-4-yl)amide] | 145 to 146 °C
CC1(O)CCN(Cc2ccc(C#CC(=O)Nc3ccc(-c4ccc(Cl)cc4)cc3)cc2)CC1 [Example 1.37, 3-[4-(4-hydroxy-4-methylpiperidin-1-ylmethyl)phenyl]propynoic acid-(4′-chlorobiphenyl-4-yl)amide] | 192 to 193 °C
O=C(C#Cc1ccc(CN2CCC(N3CCCC3)CC2)cc1)Nc1ccc(-c2ccc(Cl)cc2)cc1 [Example 1.38] | 191 to 192 °C
O=C(C#Cc1ccc(CN2CCCCC2)cc1)Nc1ccc(-c2ccc(Cl)cc2)cc1 [Example 1.39, 3-(4-piperidin-1-ylemthylphenyl)propynoic acid-(4′-chlorobiphenyl-4-yl)amide] | 179.5 °C
CN(Cc1ccc(C#CC(=O)Nc2ccc(-c3ccc(Cl)cc3)cc2)cc1)CC1CC1 [Example 1.40] | 181 °C
O=C(C#Cc1ccc(CNCCC2CCCCC2)cc1)Nc1ccc(-c2ccc(Cl)cc2)cc1 [Example 1.52, 3-{4-[(cyclohexylethylamino)methyl]phenyl}propynoic acid-(4′-chlorobiphenyl-4-yl)amide] | 156 to 157 °C
CN(Cc1ccc(C#CC(=O)Nc2ccc(-c3ccc(Cl)cc3)cc2)cc1)Cc1ccccn1 [Example 1.58] | 217 to 218 °C
CC1CCN(C2(c3ccc(C#CC(=O)Nc4ccc(-c5ccc(Cl)cc5)cc4)cc3)CC2)CC1 [Example 1.424, 3-{4-[1-(4-methylpiperidin-1-yl)cyclopropyl]phenyl}propynoic acid(4′-chlorobiphenyl-4-yl)amide] | 128 to 129 °C
CN(Cc1ccc(C#CC(=O)Nc2ccc(-c3ccc(Cl)cc3)cc2)cc1)C1CCCC1 [Example 1.425] | 217 to 219 °C
O=C(C#Cc1ccc(CCN2CCCC2)cc1)Nc1ccc(-c2ccccc2)cc1 [Example 2.1, 3-[4-(2-pyrrolidin-1-ylethyl)phenyl]propynoic Acid biphenyl-4-ylamide] | 180 to 189 °C
O=C(C#Cc1ccc(CCN2CCCC2)cc1)Nc1ccc(Cl)cc1 [Example 2.2, 3-[4-(2-pyrrolidin-1-ylethyl)phenyl]propynoic acid-4-chlorophenylamide] | 153 to 154 °C

Results, then the compound that gave them:

melting point | SMILES
207 to 208 °C | CN(Cc1ccc(/C=C/C(=O)Nc2ccc(-c3ccc(Cl)cc3)cc2)cc1)C1CCNCC1 (as salt: acetate) [Example 5.36, (E)-N-(4′-chlorobiphenyl-4-yl)-3-{4[(methylpiperidin-4-ylamino)methyl]phenyl}acrylamide×trifluoroacetic acid acetate]
112 to 116 °C | CCN(CC)CCCOc1ccc(NC(=O)C#Cc2ccc(C(F)(F)F)cc2Cl)cc1Cl (as salt: formate) [Example 4.18, 3-(2-chloro-4-trifluoromethylphenyl)propynoic acid-[3-chloro-4-(3-diethylaminopropoxy)phenyl]amide formate]
92 to 95 °C | COc1cc(NC(=O)C#Cc2ccc(C(F)(F)F)cc2Cl)ccc1OCCN1CCc2ccccc2C1 (as salt: formate) [Example 4.275, 3-(2-chloro-4-trifluoromethylphenyl)propynoic acid-{4-[2-(3,4-dihydro-1H-isoquinolin-2-yl)ethoxy]-3-methoxyphenyl}amide formate]
188 to 191 °C | CCN(CC)CCOc1ccc(NC(=O)C#Cc2c(Cl)cc(Cl)cc2Cl)cc1Cl (as salt: hydrochloride) [Example 4.5, 3-(2,4,6-trichlorophenyl)propynoic acid-[3-chloro-4-(2-diethylaminoethoxy)phenyl]amide hydrochloride]
205 to 207 °C | CCN(CC)CCOc1ccc(NC(=O)C#Cc2ccc(Cl)cc2Cl)cc1OC (as salt: hydrochloride) [Example 4.7, 3-(2,4-dichlorophenyl)propynoic acid-[3-methoxy-4-(2-diethylaminoethoxy)phenyl]amide hydrochloride]
128 to 130 °C | CCN(CC)CCOc1ccc(NC(=O)C#Cc2ccc(Cl)cc2Cl)c(Cl)c1 (as salt: hydrochloride) [Example 4.8, 3-(2,4-dichlorophenyl)propynoic acid-[2-chloro-4-(2-diethylaminoethoxy)phenyl]amide]
173 to 176 °C | COc1cc(NC(=O)C#Cc2ccc(C(F)(F)F)cc2Cl)ccc1OCCN(C)CC1CC1 (as salt: hydrochloride) [Example 4.278, 3-(2-chloro-4-trifluoromethylphenyl)propynoic acid-{4-[2-(cyclopropylmethylmethylamino)ethoxy]-3-methoxyphenyl}amide hydrochloride]
185 to 188 °C | CCCN(CCOc1ccc(NC(=O)C#Cc2ccc(C(F)(F)F)cc2Cl)cc1OC)CC1CC1 (as salt: hydrochloride) [Example 4.279, 3-(2-chloro-4-trifluoromethylphenyl)propynoic acid-{4-[2-(cyclopropylmethylpropylamino)ethoxy]-3-methoxyphenyl}amide hydrochloride]
208 °C | O=C(CCc1ccc(CNC2CC2)cc1)Nc1ccc(-c2ccc(Cl)cc2)cc1 (as salt: trifluoroacetate) [Example 6.43, N-(4′-chlorobiphenyl-4-yl)-3-(4-cyclopropylaminomethylphenyl)propionamide trifluoroacetate]

Source: patent US7592373B2 (Boehringer Ingelheim International GmbH, priority 2003, dated 2009)
